What was measured:
[1] = WST-1 cell viability assay, HUVEC; conditions: human, HUVEC cells
Experimental: (§1) HUVEC and AoSMC viability were tested using the WST-1 cell viability assay (Takara Bio Europe, Saint-Germain-en-Laye, France). […] Briefly, HUVEC and AoSMC were seeded at densities of 7500 and 5000 cells per well on 96-well plates. The cells were cultivated for up to 24 h to achieve 70% confluency, and subsequently treated with tested compounds diluted in medium (1 + 9; v = 100 μL) or pure medium (control). The plates were incubated at 37 °C (5% CO2) for the next 24 h. Then, the cells were rinsed with 100 μL culture medium, and WST-1 reagent diluted in medium (100 μL) was added; the plates were then incubated again (37 °C, 5% CO2) for another 90 min. The absorbance was measured at 450 nm (iMARK, Bio-Rad, Hercules, CA, USA). The experiments were performed in multiplicate (n = 8) and the results were presented as mean ± SD. The cell viability was expressed as a percentage of the control samples, which constituted 100% viability. […] The variability coefficient of the method was estimated (CV(HUVEC) = 8.94%, n = 8; CV(AoSMC) = 5.84%, n = 10).

HUVEC cells [2] = assay: WST-1 cell viability assay, HUVEC
Experimental: as §1

HUVEC cells [3] = assay: HUVEC migration, wound-healing assay (JuLI Stage); type: cell-based, human
Experimental: The effects of compounds 1–5 on HUVEC migration were determined using the JuLI™ Stage system (NanoEntek, Seoul, Korea): a real-time cell history recorder allowing for live cell imaging and analysis. The procedure for the migration experiments has been published elsewhere in more detail. Concisely, HUVECs were seeded at a density of 10,000 cells per well on 96-well plates and incubated at standard conditions for 24 h. Following this, a wound was made with a scratcher (NanoEntek, Seoul, Korea). The cells were then rinsed with 100 μL of fresh EGM2 medium, and treated with biguanides 1–5 at the concentrations of 0.3 and 1.0 mM. The cells were incubated and monitored continuously every 10 min for 36 h at 37 °C, 5% CO2. Analysis of obtained images of cell migration, and measurements of the width of the scratch area were performed using dedicated software (NanoEntek, Seoul, Korea). The results were presented as mean ± SD, n = 4–8. The CV for the method was estimated as 14.2–24.4%, depending on the time point (n = 8).

[4] = WST-1 cell viability assay, AoSMC; conditions: human, AoSMC cells
Experimental: as §1

[5] = test system: clot formation and fibrinolysis in human citrate plasma; assay: Clot formation and fibrinolysis test (CL-test); type: biochemical
Experimental: The effects of the […] on overall hemostasis potential by means of clot formation and fibrinolysis test (CL-test) were further tested based on the continuous measurement of the changes in optical transmittance over time, as described by Kostka et al. and Sikora et al.. These experiments were conducted using 470 µL of three-fold diluted human citrate plasma, 10 µL of the tested compounds, and 10 µL t-PA (final concentration in a sample 220 ng/mL). The clot formation was triggered by thrombin (10 µL, final concentration 0.5 IU/mL). The clot formation and lysis curves were determined at a wavelength of 405 nm with a spectrophotometer (Cecil CE 2021; London, UK) with circulating thermostated water (37 °C) and a Model 300 Electronic Stirrer (Rank Brothers Ltd., Cambridge, UK). The experiments were conducted in multiplicate (n = 5–7), and the results are presented as mean ± SD.
The received graphs were analyzed using dedicated software to determine the kinetic parameters of clot formation, stabilization, and fibrinolysis. The following parameters of clot formation were determined: Tt—thrombin time (s), Fmax—maximum clotting (%T), Tf—plasma clotting time (s), Fvo—initial plasma clotting velocity (%T/min), Sr—area under the clot formation curve (%Txmin). The parameters of the clot stabilization phase comprised Tc—clot stabilization time (s), Sc—area under the curve of stable clot formation (%Txmin). The parameters of fibrinolysis comprised Lmax—maximum lysis (%T), Tl—fibrinolysis time (s), Lvo—initial clot fibrinolysis velocity (%T/min), Sf—area under the fibrinolysis curve (%Txmin). Additionally, the overall potential of clot formation and fibrinolysis (CLAUC, (%Txmin)) and total time of the process of clot formation and fibrinolysis (T, (s)) were also estimated.

## CCCCS(=O)(=O)NC(N)=NC(=N)N(C)C [Compound 1]
[1]
  viability at 24 h, 0.06 mM: 76.3 ± 9.19%
  viability at 24 h, 0.3 mM: 71 ± 8.45%
HUVEC cells [2]; 0.3 mM, vs control
  Decrease of HUVECs viability (growth inhibition): approximately 28.96%
HUVEC cells [2]; Homo sapiens, HUVEC, 24 h, read-out: Viability-IC50, HUVEC cells
  IC50: 3.64 ± 0.26 mM
HUVEC cells [3]; 0.3 mM, 6 hours
  wound width: 491.9 ± 31.7 µm
HUVEC cells [3]; 0.3 mM, 12 hours
  wound width: 421.2 ± 5.9 µm
HUVEC cells [3]; 0.3 mM, 18 hours
  wound width: 365.2 ± 35.8 µm
HUVEC cells [3]; 0.3 mM, 24 hours
  wound width: 336.7 ± 39.0 µm
HUVEC cells [3]; 0.3 mM, Start
  wound width: 605.8 ± 38.63 µm
HUVEC cells [3]; 1.0 mM, 6 hours
  wound width: 461.9 ± 33.4 µm
HUVEC cells [3]; 1.0 mM, 12 hours
  wound width: 375.1 ± 29.9 µm
HUVEC cells [3]; 1.0 mM, 18 hours
  wound width: 344.4 ± 32.8 µm
HUVEC cells [3]; 1.0 mM, 24 hours
  wound width: 337.5 ± 47.3 µm
HUVEC cells [3]; 1.0 mM, Start
  wound width: 589.1 ± 36.3 µm
[4]
  viability at 24 h, 3 mM: > 59%
[5]; 0.06 mM
  Fmax—maximum clotting: 73.71 ± 5.89 %T
  Fvo—initial plasma clotting velocity: 230.57 ± 34.38 %T/min
  Lmax—maximum lysis: 70.23 ± 10.26 %T
  Lvo—initial clot fibrinolysis velocity: 21.40 ± 6.16 %T/min
  Sc—area under the curve of a stable clot formation: 389.25 ± 160.80 %T x min
  Sf—area under the clot formation curve: 50.97 ± 7.65 %T x min
  Sl (area under the fibrinolysis curve): 193.67 ± 107.75 %T x min
  S—overall potential of clot formation and fibrinolysis (CLAUC): 633.89 ± 269.28 %T x min
  Tc—clot stabilization time: 324.86 ± 130.79 s
  Tf—plasma clotting time: 58.61 ± 9.61 s
  Tl—fibrinolysis time: 253.57 ± 104.13 s
  Tt—thrombin time: 18.97 ± 3.08 s
  T—total time of the process of clot formation and fibrinolysis: 656.01 ± 236.60 s
[5]; 0.3 mM
  Fmax—maximum clotting: 71.97 ± 6.78 %T
  Fvo—initial plasma clotting velocity: 227.86 ± 37.81 %T/min
  Lmax—maximum lysis: 69.09 ± 10.62 %T
  Lvo—initial clot fibrinolysis velocity: 18.53 ± 7.15 %T/min
  Sc—area under the curve of a stable clot formation: 407.13 ± 154.90 %T x min
  Sf—area under the clot formation curve: 52.45 ± 10.08 %T x min
  Sl (area under the fibrinolysis curve): 186.37 ± 104.97 %T x min
  S—overall potential of clot formation and fibrinolysis (CLAUC): 645.95 ± 264.51 %T x min
  Tc—clot stabilization time: 347.71 ± 124.84 s
  Tf—plasma clotting time: 61.36 ± 11.85 s
  Tl—fibrinolysis time: 260.57 ± 95.60 s
  Tt—thrombin time: 16.81 ± 3.05 s
  T—total time of the process of clot formation and fibrinolysis: 686.46 ± 226.50 s
[5]; 0.6 mM
  Fmax—maximum clotting: 70.77 ± 5.62 %T
  Fvo—initial plasma clotting velocity: 217.71 ± 37.42 %T/min
  Lmax—maximum lysis: 69.47 ± 6.67 %T
  Lvo—initial clot fibrinolysis velocity: 18.64 ± 4.38 %T/min
  Sc—area under the curve of a stable clot formation: 388.20 ± 131.19 %T x min
  Sf—area under the clot formation curve: 53.53 ± 5.26 %T x min
  Sl (area under the fibrinolysis curve): 178.97 ± 84.17 %T x min
  S—overall potential of clot formation and fibrinolysis (CLAUC): 620.70 ± 216.54 %T x min
  Tc—clot stabilization time: 338.00 ± 114.76 s
  Tf—plasma clotting time: 63.63 ± 6.31 s
  Tl—fibrinolysis time: 267.71 ± 99.31 s
  Tt—thrombin time: 16.75 ± 4.87 s
  T—total time of the process of clot formation and fibrinolysis: 686.09 ± 216.29 s
[5]; 1.5 mM
  Fmax—maximum clotting: 70.21 ± 3.38 %T
  Fvo—initial plasma clotting velocity: 193.57 ± 47.31 %T/min
  Lmax—maximum lysis: 66.90 ± 8.86 %T
  Lvo—initial clot fibrinolysis velocity: 20.23 ± 6.46 %T/min
  Sc—area under the curve of a stable clot formation: 389.89 ± 172.66 %T x min
  Sf—area under the clot formation curve: 52.36 ± 6.58 %T x min
  Sl (area under the fibrinolysis curve): 159.20 ± 87.92 %T x min
  S—overall potential of clot formation and fibrinolysis (CLAUC): 602.52 ± 263.77 %T x min
  Tc—clot stabilization time: 344.29 ± 149.70 s
  Tf—plasma clotting time: 64.21 ± 9.03 s
  Tl—fibrinolysis time: 236.57 ± 80.20 s
  Tt—thrombin time: 21.60 ± 6.05 s
  T—total time of the process of clot formation and fibrinolysis: 666.67 ± 234.05 s
